According to PubChem BioAssay AID1845213 (Molecular Pharmacology Branch, DTP, NCI, 2023):
Activity calls are given as the source filed them. The calls were made as follows: active = viability on the fitted dose curve at most 10% of control; inactive = the rest.

Test system: NCI-H841 complex tumor spheroid viability
Experiment: Anticancer human tumor NCI-H841 cell line growth inhibition;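 as to IC50: spheroids exposed to compounds for 7 days before readout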;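 as to viability, T/C: spheroids exposed to compounds for 7 days before readout; 100% = DMSO vehicle control wells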
Settings: for IC50: curve of first compound; for viability, T/C: stronger effect = lower value
In short: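 Complex spheroids of malignant cells with endothelial cells and mesenchymal stem cells; agents alone or combined, from near clinical Cmax (or 10 microM if unknown) down in half-log steps, 0.25% DMSO final.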

[1] = second compound 1 µM, first compound 0.00949 µM
[2] = second compound 1 µM, first compound 0.03 µM
[3] = second compound 1 µM, first compound 0.0949 µM
[4] = second compound 1 µM, first compound 0.3 µM
[5] = second compound 1 µM, first compound 0.949 µM
[6] = second compound 1 µM, first compound 3 µM
[7] = second compound 3.16 µM, first compound 0.00949 µM
[8] = second compound 3.16 µM, first compound 0.03 µM
[9] = second compound 3.16 µM, first compound 0.0949 µM
[10] = second compound 3.16 µM, first compound 0.3 µM
[11] = second compound 3.16 µM, first compound 0.949 µM
[12] = second compound 3.16 µM, first compound 3 µM
[13] = second compound 10 µM, first compound 0.00949 µM
[14] = second compound 10 µM, first compound 0.03 µM
[15] = second compound 10 µM, first compound 0.0949 µM
[16] = second compound 10 µM, first compound 0.3 µM
[17] = second compound 10 µM, first compound 0.949 µM
[18] = second compound 10 µM, first compound 3 µM
[19] = second compound 31.6 µM, first compound 0.00949 µM
[20] = second compound 31.6 µM, first compound 0.03 µM
[21] = second compound 31.6 µM, first compound 0.0949 µM
[22] = second compound 31.6 µM, first compound 0.3 µM
[23] = second compound 31.6 µM, first compound 0.949 µM
[24] = second compound 31.6 µM, first compound 3 µM
[25] = second compound 100 µM, first compound 0.00949 µM
[26] = second compound 100 µM, first compound 0.03 µM
[27] = second compound 100 µM, first compound 0.0949 µM
[28] = second compound 100 µM, first compound 0.3 µM
[29] = second compound 100 µM, first compound 0.949 µM
[30] = second compound 100 µM, first compound 3 µM

In the case of `CC(C)n1c(=O)n(C)c2cnc3cc(F)c(-c4ccc(OCCCN5CCCCC5)nc4)cc3c21` + COc1cc2c(cc1O)CCNC21CSC2c3c(OC(C)=O)c(C)c4c(c3C(COC1=O)N1C(O)C3Cc5cc(C)c(OC)c(O)c5C(C21)N3C)OCO4, the IC50 (second compound 30 pM) is reported as greater than 10000 nM, the IC50 (second compound 94.9 pM) is reported as less than 31.6 nM and the IC50 (second compound 0.0003 µM) is reported as less than 31.6 nM. It also gave an IC50 (second compound 0.000949 µM) of less than 31.6 nM, an IC50 (second compound 0.003 µM) of less than 31.6 nM and a viability, T/C (second compound 30 pM, first compound 0.0316 µM) of 83.8%. The viability, T/C (second compound 30 pM, first compound 0.1 µM) was 79.7%, the viability, T/C (second compound 30 pM, first compound 0.316 µM) was 78.9% and the viability, T/C (second compound 30 pM, first compound 1 µM) was 79.1%. The viability, T/C (second compound 30 pM, first compound 3.16 µM) was 79.1%, the viability, T/C (second compound 30 pM, first compound 10 µM) was 69.5% and the viability, T/C (second compound 94.9 pM, first compound 0.0316 µM) was 40.4%. It also gave a viability, T/C (second compound 94.9 pM, first compound 0.1 µM) of 34.5%, a viability, T/C (second compound 94.9 pM, first compound 0.316 µM) of 32% and a viability, T/C (second compound 94.9 pM, first compound 1 µM) of 25.9%. The viability, T/C (second compound 94.9 pM, first compound 3.16 µM) was 26.2%, the viability, T/C (second compound 94.9 pM, first compound 10 µM) was 18% and the viability, T/C (second compound 0.0003 µM, first compound 0.0316 µM) was 3.09%. For the same compound, the viability, T/C (second compound 0.0003 µM, first compound 0.1 µM) was 3.02%, the viability, T/C (second compound 0.0003 µM, first compound 0.316 µM) was 2.66% and the viability, T/C (second compound 0.0003 µM, first compound 1 µM) was 2.5%. For the same compound, the viability, T/C (second compound 0.0003 µM, first compound 3.16 µM) was 2.79%, the viability, T/C (second compound 0.0003 µM, first compound 10 µM) was 2% and the viability, T/C (second compound 0.000949 µM, first compound 0.0316 µM) was 2.82%. It also gave a viability, T/C (second compound 0.000949 µM, first compound 0.1 µM) of 3.14%, a viability, T/C (second compound 0.000949 µM, first compound 0.316 µM) of 3.38% and a viability, T/C (second compound 0.000949 µM, first compound 1 µM) of 2.32%. It also gave a viability, T/C (second compound 0.000949 µM, first compound 3.16 µM) of 2.06%, a viability, T/C (second compound 0.000949 µM, first compound 10 µM) of 1.47% and a viability, T/C (second compound 0.003 µM, first compound 0.0316 µM) of 0.11%. It also gave a viability, T/C (second compound 0.003 µM, first compound 0.1 µM) of 0.12%, a viability, T/C (second compound 0.003 µM, first compound 0.316 µM) of 0.11% and a viability, T/C (second compound 0.003 µM, first compound 1 µM) of 0.1%. It also gave a viability, T/C (second compound 0.003 µM, first compound 3.16 µM) of 0.1% and a viability, T/C (second compound 0.003 µM, first compound 10 µM) of 0.15%.
In the case of `CNCc1ccc(-c2cc(-c3nc(-c4ccc(S(=O)(=O)C(C)C)cc4)cnc3N)on2)cc1` + Cn1nnc2c(C(N)=O)ncn2c1=O, the IC50 (second compound 1 µM) is reported as 63 nM, the IC50 (second compound 3.16 µM) is reported as 63.5 nM and the IC50 (second compound 10 µM) is reported as 177 nM. The IC50 (second compound 31.6 µM) was 88 nM, the IC50 (second compound 100 µM) was 49.8 nM and the viability, T/C [1] was 96.3%. For the same compound, the viability, T/C [2] was 94.5%, the viability, T/C [3] was 25.5% and the viability, T/C [4] was 33.9%. The viability, T/C [5] was 4.57%, the viability, T/C [6] was 1.05% and the viability, T/C [7] was 97.7%. It also gave a viability, T/C [8] of 74.5%, a viability, T/C [9] of 33% and a viability, T/C [10] of 21.8%. For the same compound, the viability, T/C [11] was 3.41%, the viability, T/C [12] was 0.87% and the viability, T/C [13] was 101%. It also gave a viability, T/C [14] of 99.2%, a viability, T/C [15] of 89.8% and a viability, T/C [16] of 16.2%. It also gave a viability, T/C [17] of 2.29%, a viability, T/C [18] of 5.12% and a viability, T/C [19] of 97.5%. For the same compound, the viability, T/C [20] was 96.3%, the viability, T/C [21] was 45% and the viability, T/C [22] was 17.2%. It also gave a viability, T/C [23] of 1.91%, a viability, T/C [24] of 7.45% and a viability, T/C [25] of 92.9%. It also gave a viability, T/C [26] of 48%, a viability, T/C [27] of 58.3% and a viability, T/C [28] of 5.09%. For the same compound, the viability, T/C [29] was 8.18% and the viability, T/C [30] was 0.32%.
`Cn1ncnc1[C@H]1c2n[nH]c(=O)c3cc(F)cc(c23)N[C@@H]1c1ccc(F)cc1` + Cn1nnc2c(C(N)=O)ncn2c1=O gave an IC50 (second compound 1 µM) of 369 nM, an IC50 (second compound 3.16 µM) of 18.6 nM and an IC50 (second compound 10 µM) of less than 9.49 nM. For the same compound, the IC50 (second compound 31.6 µM) was less than 9.49 nM, the IC50 (second compound 100 µM) was less than 9.49 nM and the viability, T/C [1] was 89.2%. It also gave a viability, T/C [2] of 86.4%, a viability, T/C [3] of 78.1% and a viability, T/C [4] of 60.3%. The viability, T/C [5] was 4.54%, the viability, T/C [6] was 2.08% and the viability, T/C [7] was 90.5%. The viability, T/C [8] was 9.92%, the viability, T/C [9] was 42.8% and the viability, T/C [10] was 42.2%. The viability, T/C [11] was 6.61%, the viability, T/C [12] was 5.73% and the viability, T/C [13] was 25.7%. For the same compound, the viability, T/C [14] was 54.8%, the viability, T/C [15] was 9.14% and the viability, T/C [16] was 11.2%. For the same compound, the viability, T/C [17] was 6.05%, the viability, T/C [18] was 2.46% and the viability, T/C [19] was 13.9%. It also gave a viability, T/C [20] of 6.84%, a viability, T/C [21] of 3.57% and a viability, T/C [22] of 2.41%. It also gave a viability, T/C [23] of 2.88%, a viability, T/C [24] of 3.21% and a viability, T/C [25] of 3.08%. For the same compound, the viability, T/C [26] was 2.93%, the viability, T/C [27] was 3.16% and the viability, T/C [28] was 3.31%. It also gave a viability, T/C [29] of 8.92% and a viability, T/C [30] of 3.58%.
Compound `O=C(c1cc(Cc2n[nH]c(=O)c3ccccc23)ccc1F)N1CCN(C(=O)C2CC2)CC1` + Cn1nnc2c(C(N)=O)ncn2c1=O has an IC50 (second compound 1 µM) of 5820 nM, an IC50 (second compound 3.16 µM) of 4960 nM and an IC50 (second compound 10 µM) of 131 nM. The IC50 (second compound 31.6 µM) was 490 nM, the IC50 (second compound 100 µM) was less than 94.9 nM and the viability, T/C [3] was 96.6%. The viability, T/C [4] was 99.7%, the viability, T/C [5] was 87.6% and the outcome [6] was “inactive”. The viability, T/C (second compound 1 µM, first compound 9.49 µM) was 36.1%, the viability, T/C (second compound 1 µM, first compound 30 µM) was 7.71% and the viability, T/C [9] was 104%. The viability, T/C [10] was 99.6%, the viability, T/C [11] was 95.3% and the viability, T/C [12] was 77.5%. The viability, T/C (second compound 3.16 µM, first compound 9.49 µM) was 14.7%, the viability, T/C (second compound 3.16 µM, first compound 30 µM) was 7.81% and the outcome [15] was “inactive”. The outcome [16] was “inactive”, the viability, T/C [17] was 45.5% and the viability, T/C [18] was 9.01%. For the same compound, the viability, T/C (second compound 10 µM, first compound 9.49 µM) was 6.29%, the viability, T/C (second compound 10 µM, first compound 30 µM) was 3.58% and the viability, T/C [21] was 90.2%. It also gave a viability, T/C [22] of 83.1%, a viability, T/C [23] of 4.8% and a viability, T/C [24] of 9.51%. The viability, T/C (second compound 31.6 µM, first compound 9.49 µM) was 3.15%, the viability, T/C (second compound 31.6 µM, first compound 30 µM) was 4.15% and the viability, T/C [27] was 17.8%. For the same compound, the viability, T/C [28] was 15%, the viability, T/C [29] was 4.23% and the viability, T/C [30] was 5.1%. For the same compound, the viability, T/C (second compound 100 µM, first compound 9.49 µM) was 3.82% and the viability, T/C (second compound 100 µM, first compound 30 µM) was 5.19%.
